Laboratory results reported in US20160115447A1, “COMPOSITIONS AND METHODS FOR IMPROVING INDUCED NEURON GENERATION” (PRESIDENT AND FELLOWS OF HARVARD COLLEGE, priority 2013, published 2016).
Read-outs that look alike come from different tables or passages of the source.

Experiments:
mouse adult fibroblasts = test: transcription factor-mediated conversion of mouse adult fibroblasts into Hb9::GFP+ spinal motor neurons (iMN conversion screen); format: cell-based; details: days 1-5, 6-10 or 11-15 of reprogramming, FIG. 4
From the text: FIGS. 1A and 1B illustrate the screens performed to identify small molecule enhancers of induced motor neuron (iMN) conversion. FIG. 1A is a schematic illustration depicting the primary screen for small molecules enhancers of iMN conversion via viral transduction with 7 transcription factors performed on fibroblasts harvested from 2 month old Hb9::GFP mice. FIG. 1B is a graphical illustration depicting the results of a secondary screen performed on the top hits identified by the primary screen depicted in FIG. 1A, pointing to two lead compounds as effective enhancers of iMN conversion.
To this end, a functional reprogramming screen was used to identify small molecules that increase the rate of transcription factor-mediated conversion of mouse adult fibroblasts into Hb9::GFP+ spinal motor neurons (FIGS. 1A and 1B). An inhibitor of Activin-like kinases 4/5/7 (FIG. 2A) and a Polo-like kinase I (PLK1) inhibitor (FIG. 2B) each increased induced motor neuron formation by 5-10-fold (FIG. 3). In combination, the chemicals increased the rate of induced motor neuron formation by 50-fold (FIG. 3).

[1] = system: fibroblasts transduced with Ascl1, Myt1l, and Brn2
From the text: To determine if Activin inhibition increases conversion into other neuronal types, fibroblasts were transduced with Ascl1, Myt1l, and Brn2, transcription factors that induce the formation of non-motor neurons, and cultured the cells with or without the Activin inhibitor.

[2] = system: Hb9::GFP+ intermediates exhibiting a non-neuronal morphology; details: FIG. 6
human fibroblasts = details: FIG. 7

Row | SMILES | effect on iMN conversion by time of administration (pulse treatments) (mouse adult fibroblasts) | effect on iMN conversion by time of administration (pulse treatments) (mouse adult fibroblasts; listed as PLK1 inhibitor) | effect on iMN conversion by time of administration (pulse treatments) (mouse adult fibroblasts; listed as Activin inhibitor) | induced neuron (iN) conversion ([1]; FIG. 9) | increase of the number of neurons generated ([1]; with versus without the Activin inhibitor) [fold] | survival of FACS-sorted iMNs (FACS-sorted iMNs; SOD1G93A motor neurons, FIG. 5B) | survival of FACS-sorted iMNs (FACS-sorted iMNs; wild-type (WT) motor neurons, FIG. 5A) | survival of Hb9::GFP+ intermediates [2] | generation of patient specific human iMNs (human fibroblasts)
1 | CC[C@@H]1C(=O)N(C)c2cnc(Nc3ccc(C(=O)NC4CCN(C)CC4)cc3OC)nc2N1C1CCCC1 [BI 2536, 4-[[(7R)-8-cyclopentyl-7-ethyl-5-methyl-6-oxo-7H-pteridin-2-yl]amino]-3-methoxy-N-(1-methylpiperidin-4-yl)benzamide] | improved conversion only during days 6-10 | only active during days 6-10 |  |  |  |  |  |  | 
2 | Cc1cccc(-c2[nH]ncc2-c2ccc3ncccc3n2)n1 [RepSox] | improved iMN conversion regardless of the time it is added to the culture medium |  | effective when administered from days 1-5, 6-10, or 11-15 | enhances induced neuron (iN) conversion | 10 | promotes survival | promotes survival | promotes survival | promotes generation
